System: p-IKKa levels in L363 (NIK translocated multiple myeloma) cells
Assay: Assay 2: Effect of compounds on p-IKKa levels in L363 (NIK translocated multiple myeloma) cells
Assay type: cell-based
Conditions: Homo sapiens, L-363, 6 h, read-out: Assay 2 IC50 (nM), p-IKKa (Ser 176/180) in BAFF stimulated L363 cells with MG132, 6 h; average if tested more than once
In short: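 Read-out is p-IKKa Ser176/180 by AlphaLISA SureFire in lysates. Cells were BAFF-primed (250 ng/ml) overnight or left unstimulated, then exposed 6 h at 37 °C to compound with MG132 (10 μM), 0.3% DMSO. IC50 from sigmoidal curve fit, normalized between stimulated and unstimulated controls.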

| Compound | IC50 |
| --- | --- |
| CN1CC[C@@](O)(c2cc(-c3cccc(-c4ccnc(Nc5cnn(C)c5)n4)n3)on2)C1=O [Example 30, (R)-3-Hydroxy-1-methyl-3-(5-(6-(2-((1-methyl-1H-pyrazol-4-yl)amino)pyrimidin-4-yl)pyridin-2-yl)isoxazol-3-yl)pyrrolidin-2-one] | < 50 nM |
| COC1CCC(Nc2nccc(-c3cccc(-c4cc([C@]5(O)CCN(C)C5=O)on4)n3)n2)CC1 (stereo partly drawn) [Example 469, (R)-3-Hydroxy-3-(3-(6-(2-((4-methoxycyclohexyl)amino)pyrimidin-4-yl)pyridin-2-yl)isoxazol-5-yl)-1-methylpyrrolidin-2-one] | > 500 nM |
| CN1C(=O)[C@](O)(c2cc(-c3cccc(-c4ccnc(Nc5cnn6c5CCC6)n4)n3)no2)[C@H]2C[C@H]21 [Example 133, (1R,4R,5S)-4-(3-(6-(2-((5,6-Dihydro-4H-pyrrolo[1,2-b]pyrazol-3-yl)amino)pyrimidin-4-yl)pyridin-2-yl)isoxazol-5-yl)-4-hydroxy-2-methyl-2-azabicyclo[3.1.0]hexan-3-one] | < 50 nM |
| CNC(=O)[C@H](C)Nc1nccc(-c2cccc(-c3cc([C@]4(O)CCN(C)C4=O)on3)n2)n1 [Example 183, (S)-2-((4-(6-(5-((R)-3-Hydroxy-1-methyl-2-oxopyrrolidin-3-yl)isoxazol-3-yl)pyridin-2-yl)pyrimidin-2-yl)amino)-N-methylpropanamide] | 50 to 500 nM |
| Cc1nn(C)cc1Nc1nccc(-c2cccc(-c3cc([C@]4(O)CCN(C)C4=O)on3)n2)n1 [Example 29, (R)-3-(3-(6-(2-((1,3-Dimethyl-1H-pyrazol-4-yl)amino)pyrimidin-4-yl)pyridin-2-yl)isoxazol-5-yl)-3-hydroxy-1-methylpyrrolidin-2-one] | < 50 nM |
| Cc1cc(Nc2nccc(-c3cccc(-c4cc([C@]5(O)CCN(C)C5=O)on4)n3)n2)n(CCO)n1 [Example 129, (R)-3-Hydroxy-3-(3-(6-(2-((1-(2-hydroxyethyl)-3-methyl-1H-pyrazol-5-yl)amino)pyrimidin-4-yl)pyridin-2-yl)isoxazol-5-yl)-1-methylpyrrolidin-2-one] | 50 to 500 nM |
| CN1CC[C@@](O)(c2cc(-c3cccc(-c4ccnc(Nc5c[nH]nc5C(F)(F)F)n4)n3)no2)C1=O [Example 33, (R)-3-Hydroxy-1-methyl-3-(3-(6-(2-((3-(trifluoromethyl)-1H-pyrazol-4-yl)amino)pyrimidin-4-yl)pyridin-2-yl)isoxazol-5-yl)pyrrolidin-2-one] | > 500 nM |
| Cc1cc(Nc2nccc(-c3cccc(-n4cc([C@@]5(O)C(=O)N(C)CC5(F)F)nn4)n3)n2)ccn1 [Example 117, (R)-4,4-Difluoro-3-hydroxy-1-methyl-3-(1-(6-(2-((2-methylpyridin-4-yl)amino)pyrimidin-4-yl)pyridin-2-yl)-1H-1,2,3-triazol-4-yl)pyrrolidin-2-one] | < 50 nM |
| CN1CC[C@@](O)(c2cc(-c3cccc(-c4ccnc(N[C@H]5CC[C@H](O)C5)n4)c3)no2)C1=O [Example 13, (R)-3-Hydroxy-3-(3-(3-(2-(((1 S,3S)-3-hydroxycyclopentyl)amino)pyrimidin-4-yl)phenyl)isoxazol-5-yl)-1-methylpyrrolidin-2-one] | > 500 nM |
| CN1CC[C@@](O)(c2cc(-c3cccc(-c4ccnc(Nc5cc(CO)n(C)n5)n4)n3)no2)C1=O [Example 280, (R)-3-Hydroxy-3-(3-(6-(2-((5-(hydroxymethyl)-1-methyl-1H-pyrazol-3-yl)amino)pyrimidin-4-yl)pyridin-2-yl)isoxazol-5-yl)-1-methylpyrrolidin-2-one] | 50 to 500 nM |
| [2H]c1cc(-c2cccc(-c3cc([C@]4(O)CCN(C)C4=O)on3)n2)nc(Nc2ccn(C)n2)n1 [Example 209, (R)-3-Hydroxy-1-methyl-3-(3-(6-(2-((1-methyl-1H-pyrazol-3-yl)amino)pyrimidin-4-yl-6-d)pyridin-2-yl)isoxazol-5-yl)pyrrolidin-2-one] | < 50 nM |
| CN1CC[C@@](O)(c2cc(-c3cccc(-c4ccnc(N[C@H]5CCSC5)n4)n3)no2)C1=O (single isomer, unassigned) [Example 457, (R)-3-Hydroxy-1-methyl-3-(3-(6-(2-(((*S)-tetrahydrothiophen-3-yl)amino)pyrimidin-4-yl)pyridin-2-yl)isoxazol-5-yl)pyrrolidin-2-one] | 50 to 500 nM |
| CN1CC[C@@](O)(c2cc(-c3cccc(-c4ccnc(Nc5cnc6n5CCOCC6)n4)n3)no2)C1=O [Example 314, (R)-3-Hydroxy-1-methyl-3-(3-(6-(2-((5,6,8,9-tetrahydroimidazo[1,2-d][1,4]oxazepin-3-yl)amino)pyrimidin-4-yl)pyridin-2-yl)isoxazol-5-yl)pyrrolidin-2-one] | > 500 nM |
| CN1CC[C@@](O)(c2cc(-c3cccc(-c4ccnc(N[C@H]5C[C@H](F)C5)n4)n3)no2)C1=O [Example 349, (R)-3-(3-(6-(2-(((1r,3R)-3-Fluorocyclobutyl)amino)pyrimidin-4-yl)pyridin-2-yl)isoxazol-5-yl)-3-hydroxy-1-methylpyrrolidin-2-one] | 50 to 500 nM |
| CN1CC[C@@](O)(c2cc(-c3cccc(-c4nc(Nc5ccn(C)n5)ncc4F)c3)no2)C1=O [Example 425, (R)-3-(3-(3-(5-Fluoro-2-((1-methyl-1H-pyrazol-3-yl)amino)pyrimidin-4-yl)phenyl)isoxazol-5-yl)-3-hydroxy-1-methylpyrrolidin-2-one] | > 500 nM |
| C[C@@H](Nc1nccc(-c2cccc(-c3cc([C@]4(O)CCN(C)C4=O)no3)n2)n1)c1cnn(C)c1 (single isomer, unassigned) [Example 401] | < 50 nM |
| CN1CC[C@](O)(c2cc(-c3cccc(-c4ccnc(Nc5ccn(C)n5)n4)n3)[nH]n2)C1=O (single isomer, unassigned) [Example 84] | > 500 nM |
| CN1CC[C@@](O)(c2cc(-c3cccc(-c4ccnc(NCCC(F)(F)F)n4)c3)no2)C1=O [Example 71, (R)-3-Hydroxy-1-methyl-3-(3-(3-(2-((3,3,3-trifluoropropyl)amino)pyrimidin-4-yl)phenyl)isoxazol-5-yl)pyrrolidin-2-one] | > 500 nM |
| COc1cn([C@H]2C[C@@H](O)C2)nc1Nc1nccc(-c2cccc(-c3cc([C@]4(O)CCN(C)C4=O)on3)n2)n1 [Example 230, (R)-3-Hydroxy-3-(3-(6-(2-((1-((1s,3s)-3-hydroxycyclobutyl)-4-methoxy-1H-pyrazol-3-yl)amino)pyrimidin-4-yl)pyridin-2-yl)isoxazol-5-yl)-1-methylpyrrolidin-2-one] | < 50 nM |
| C[C@@H](Nc1nccc(-c2cccc(-n3cc([C@]4(O)CCN(C)C4=O)nn3)n2)n1)c1cnn(C)c1 (single isomer, unassigned) [Example 118] | > 500 nM |
| C[C@H](Nc1nccc(-c2cccc(-c3cc([C@]4(O)CCN(C)C4=O)on3)n2)n1)c1cccnc1 [Example 374, (R)-3-Hydroxy-1-methyl-3-(3-(6-(2-(((S)-1-(pyridin-3-yl)ethyl)amino)pyrimidin-4-yl)pyridin-2-yl)isoxazol-5-yl)pyrrolidin-2-one] | 50 to 500 nM |
| CN1CC[C@@](O)(c2cc(-c3cccc(-c4ccnc(NC5CCN(S(C)(=O)=O)CC5)n4)n3)no2)C1=O [Example 476, (R)-3-Hydroxy-1-methyl-3-(3-(6-(2-((1-(methylsulfonyl)piperidin-4-yl)amino)pyrimidin-4-yl)pyridin-2-yl)isoxazol-5-yl)pyrrolidin-2-one] | 50 to 500 nM |
